Assay results: US5393779A, “Chemical compounds” (Zeneca Limited, priority 1991, dated 1995)

How the values were obtained:
[1] = test system: brown adipose tissue (BAT) mitochondria; experiment: Test (a): GDP binding in BAT mitochondria of cold-adapted rats as a measure of thermogenic activation; format: in vivo; conditions: BAT removed one hour after dosing; for ED50: Rattus norvegicus, 1 h, oral, relative to isoprenaline 1 mgkg^-1, read-out: oral ED50 (dose producing 50% of the isoprenaline effect on GDP binding)
Description: (a) Rats are cold adapted at 4° C. for 5 days to increase their capacity for thermogenesis. They are then transferred to a warm environment of 25° C. for 2 days. On the following day, a test compound is administered sub-cutaneously or orally. Animals are sacrificed one hour later and the interscapular, brown adipose tissue (BAT) pad is removed. BAT mitochondria are prepared by differential centrifugation and GDP binding is determined (Holloway et al., International Journal of Obesity, 1984, 8, 295) as a measure of thermogenic activation. Each test includes a control which is dosed with the solution/suspension vehicle only and a positive control which is dosed with isoprenaline (as its sulphate) at 1 mgkg^-1. Test compounds are routinely dosed at 0.1, 0.3, 1.0, 3.0, and 10 […] and results expressed in terms of the effect on GDP binding produced by the positive control. […] Compounds are considered active in this test if they cause a significant elevation in GDP binding as compared to controls.

rat adipocytes = experiment: Rat adipocyte lipolysis test; format: cell-based, rats; conditions: 1.5 h, rat epididymal adipocytes, 90 minutes, free fatty acids, isoprenaline 3×10^-6 M, read-out: Efficacy (maximal effect on lipolysis as a percentage of the maximal effect of isoprenaline)
Description: Epididymal adipose tissue was excised from male rats and adipocytes prepared by digestion with collagenase. Cells were isolated by flotation and washed four times with Krebs Ringer Bicarbonate buffer (KRB), finally washing in KRB containing 2% bovine serum albumin (KRB/BSA). Aliquots of the cell suspension were incubated in the presence of a range of concentrations of the test compound in a total volume of 1 ml KRB/2% BSA containing 0.1 mg/ml ascorbate in an atmosphere of 95%O2,5%CO2. Incubations were also carried out in the presence of a concentration of isoprenaline (3×10^-6 M) known to have a maximal effect on lipolysis. Control incubations were carried out in KRB/2% BSA containing ascorbate. The incubations were terminated after 90 minutes by placing the tubes on ice, and aliquots of infranatant removed for assay of free fatty acids which were measured using a WAKO NEFA-C assay kit (Alpha Laboratories). Lipolytic activity of the compounds was assessed by determining the increase in free fatty acid concentrations caused by the compounds compared to controls. The maximal effects (efficacy) of the compounds were determined and expressed as percentage of the maximal effect of isoprenaline.
Efficacy is the maximal effect of the test compound on lipolysis expressed as a percentage of the maximal effect of isoprenaline.

Rats [2] = experiment: Test (b): heart rate in rats, D500 dose and selectivity index (SI); format: in vivo
Description: (b) Rats are adapted to a thermoneutral environment (29° C.) for 2 weeks in order to decrease their capacity for BAT mediated non-shivering thermogenesis. During the final 5 days the animals are trained to use an apparatus for measuring heart rate non-invasively via foot-pad electrodes connected to an ECG integrator giving a continuous read-out of heart rate. A test compound is administered sub-cutaneously or orally at the ED50 determined in test (a), and heart rate is determined 15-30 minutes after dosing. The procedure is then repeated in subsequent tests using increasing multiples of the ED50 determined in test (a) until the heart rate (HR) reaches or exceeds 500 beats per minute, or until the dose reaches 100 times the ED50 determined in test (a). The dose necessary to produce a heart rate of 500 beats per minute (D500 dose) is estimated.
The ratio of D500 to ED50 in test (a) can be defined as the selectivity index (SI) and provides a measure of the selectivity of the compound for BAT as opposed to the cardiovascular system.

Rats [3] = experiment: Test (c): metabolic rate by closed-circuit oxygen consumption in rats; format: in vivo; conditions: 1mgkg^-1 p.o.
Description: (c) Rats are kept at 23° C. for at least two days, then fasted overnight. On the following day, the basal metabolic rate of the animals is determined using a close-circuit oxygen consumption apparatus of the type described by Arundel et al., 1984, J. Appl. Physiol. Respirat. Environ. Exercise Physiol., 1984, 57 (5) 1591-1593. The rats are then dosed (orally) with test compound at about 1 mgkg^-1 as a solution or suspension in 0,025% w/v Polysorbate 80 (0.5 ml/100 g). Metabolic rate is then determined for at least one hour after dosing. Compounds are considered active in this test if they cause a significant increase in metabolic rate as compared to control animals (Student's t test: p <0.05) dosed only the solution or suspension vehicle.

C57BL/KsJ (db/db) mice = experiment: Effects on blood glucose levels in insulin resistant db/db mice; format: in vivo; conditions: 50 mg/kg diet
Description: Effects on blood glucose levels in insulin resistant db/db mice C57BL/KsJ (db/db) mice were divided into two groups and allowed free access to control diet or diet containing the compound of Example 1 at a concentration of 50 mg/kg diet. A group of control (+/+) mice was also included in the experiment. After 16 days treatment, blood samples were taken from the mice for determination of blood glucose levels.
Results are mean±S.E.M. of observations in groups of 15 mice. Student's t test was used to test the significance of the difference between control (+/+) and treated (db/db) groups.

Male rats = experiment: Oral glucose tolerance test; format: in vivo; conditions: for Plasma glucose: 5 mg/Kg p.o., mean±S.E.M., six rats
Description: Male rats (125-150 g) were fasted for 24 hours. After fasting, a group of six rats was anaesthetised and a cardiac blood sample taken. Other groups of rats were then dosed with the compound of Example 1 (5.0 mg/Kg p.o.) dissolved in an aqueous solution of 0.025% polysorbate. Control rats were dosed with polysorbate solution alone. The volume of solution dosed was 0.5 ml/100 g body weight. 60 minutes subsequent to dosing six control and six treated rats were anaesthetised and cardiac samples taken. The remaining rats were given an oral glucose load (1 g/Kg) dosed as a 20% solution of D-glucose (0.5 ml/100 g). Groups of six rats for each control and treatment were then anaesthetised and bled at 20, 60 and 120 minutes after the glucose load. Plasma glucose and insulin were determined using standard methods.
The results are mean±S.E.M. of observations in six rats in each group. Student's t test was used to test the significance of the difference between control and treated groups.

## O=C(O)COc1ccc(OCCNCC(O)c2ccccc2)cc1 (stereo not drawn) [4-[2-(2-Hydroxy-2-phenylethylamino)-ethoxy]phenyloxyacetic acid, reference compound]
[1]
  ED50: > 3 mg/kg

## O=C(O)COc1ccc(OCCNCC(O)COc2ccccc2)cc1 (stereo not drawn) [4-[2-(2-Hydroxy-3-phenoxypropylamino)-ethoxy]phenoxyacetic acid, reference compound]
Rat adipocytes
  Emax: 26%

## O=C(O)Cc1ccc(OCCNC[C@H](O)c2ccccc2)cc1 [Example 1, (R)-4-[2-(2-Hydroxy-2-phenylethylamino)ethoxy]phenylacetic acid]
Rats [2]; oral
  SI (selectivity index, ratio of D500 to ED50 in test (a)): > 50
Rat adipocytes
  Emax: 100%
Rats [3]
  metabolic rate (oxygen consumption): 6.53 ml O2 min^-l (Kg^O.75)
[1]; relative to isoprenaline 1 mgkg^-1
  oral ED50 (dose producing 50% of the isoprenaline effect on GDP binding): 0.55 mgkg^-1
[1]
  ED50: 0.55 mg/kg
C57BL/KsJ (db/db) mice; 16 days
  effect on blood glucose levels (in words): normalises blood glucose levels
C57BL/KsJ (db/db) mice; after 16 days treatment, mean±S.E.M., 15 mice
  Blood glucose: 5.3 ± 0.46 mM
Male rats; 0 mins relative to oral glucose load
  Plasma glucose: 3.52 ± 0.07 mM
Male rats; 20 mins after oral glucose load (1 g/Kg)
  Plasma glucose: 5.72 ± 0.24 mM
Male rats; 60 mins after oral glucose load (1 g/Kg)
  Plasma glucose: 5.32 ± 0.24 mM
Male rats; 120 mins after oral glucose load (1 g/Kg)
  Plasma glucose: 5.43 ± 0.31 mM
Male rats; 5.0 mg/Kg p.o., rats
  antihyperglycaemic activity (in words): marked antihyperglycaemic activity

## CC(C)NCC(O)c1ccc(O)c(O)c1 (stereo not drawn) [isoprenaline, reference compound]
Rats [2]; route not stated
  SI (selectivity index, ratio of D500 to ED50 in test (a)): 0.06
